Source: publication PMC6792352, “Limited Chemical Structural Diversity Found to Modulate Thyroid Hormone Receptor in the Tox21 Chemical Library” (Environmental Health Perspectives, 2019)
Like-named read-outs stand apart in the source and are kept apart here.

What was measured:
[1] = tested on: thyroid hormone receptor (endogenous TRα and TRβ); assay: GH3-TRE-Antag primary qHTS, luciferase reporter, antagonist mode with 1 nM T3 (TOX21_TR_LUC_GH3_Antagonist, aeid 804); assay type: cell-based, rat
[2] = tested on: Tox21 cell viability assays (different cell types); assay: Global cytotoxicity: eighteen Tox21 cell viability assays; assay type: cell-based
[3] = as above; assay type: cell-based
in vitro [4] = conditions: rat, gh3-tre-luc cells, AC50 (uM) modified / 1000
in vitro [5] = conditions: rat
[6] = tested on: thyroid hormone receptor (endogenous TRα and TRβ); assay: GH3-TRE-Ag primary qHTS, luciferase reporter, agonist mode (TOX21_TR_LUC_GH3_Agonist, aeid 803); assay type: cell-based, rat; conditions: for TR_LUC_GH3_Agonist_EMAX (% Control): Table S5; for GH3-TRE-Ag AC50 hitc: hit call from tcpl
[7] = GH3-TRE-Via cell viability, CellTiter-Fluor (TOX21_TR_LUC_GH3_Antagonist_viability, aeid 805); conditions: rat
GH3-TRE-Luc cell line [8] = conditions: rat, 24 h
[9] = tested on: thyroid hormone receptor (TR); assay: Classification of TR actives across characterization assays (TR-Ag / RXR-Ag; TR model binary); conditions: for Categorization Code: TR agonist characterization; for Classification: TR-Ag = TR agonist, RXR-Ag = RXR agonist
Outline: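 Pharmaceuticals excluded; actives called from GH3-TRE qHTS (agonist, antagonist, viability) on 8,305 chemicals. Confirmation of 84 selected chemicals used GH3-TRE-Ag, mammalian one-hybrid TRβ and RXRα UAS-bla HEK 293T specificity screens, parental HEK293T viability, and two TR:coactivator recruitment assays.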

[10] = tested on: thyroid hormone receptor (endogenous TRα and TRβ); assay: GH3-TRE-Ag-Followup confirmation (TOX21_TR_LUC_GH3_Agonist_Followup, aeid 2226); assay type: cell-based, rat; conditions: for AC50: confirmation, agonist mode, read-out: GH3-TRE-Ag-Followup AC50; for GH3-TRE-Ag-Followup hitc: hit call from tcpl
[11] = target: T1, human TRβ ligand-binding domain (Homo sapiens, UniProt P10828); assay: TRb-bla agonist mammalian one-hybrid beta-lactamase assay (TOX21_TRB_BLA_Agonist_Followup_ratio, aeid 2236); assay type: cell-based; design: host or cells: GeneBLAzer UAS-bla HEK 293T; conditions: for AC50: HEK 293T one-hybrid, agonist mode, read-out: TRb-bla-Ag AC50; for TRb-bla hitc: hit call from tcpl, agonist; for Emax: read-out: EMax (% of Control) trb-bla-agonist-followup-1
T1 sequence (P10828 217-461 limits assumed): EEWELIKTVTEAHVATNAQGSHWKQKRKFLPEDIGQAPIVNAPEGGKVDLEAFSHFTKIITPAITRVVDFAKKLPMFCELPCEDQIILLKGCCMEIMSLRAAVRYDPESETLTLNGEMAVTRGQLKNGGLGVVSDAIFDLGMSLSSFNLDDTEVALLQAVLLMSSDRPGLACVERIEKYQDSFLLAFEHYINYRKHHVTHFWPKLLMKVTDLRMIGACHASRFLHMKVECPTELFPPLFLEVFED

[12] = target: T2, TRα ligand-binding domain (Homo sapiens, UniProt P10827); assay: TRa-coa LanthaScreen TR-FRET coactivator (SRC-2 peptide) recruitment, agonist (TOX21_TRA_COA_Agonist_Followup_ratio, aeid 2230); assay type: biochemical; conditions: for AC50: cell-free coactivator recruitment, read-out: TRa-coa-Ag AC50; for TRa-coa hitc: hit call from tcpl, agonist; for Emax: read-out: EMax (% of Control) tra-coa-agonist-followup-1
T2 construct: the receptor LBDs expressed as glutathione S-transferase (GST) fusion proteins; purchased

[13] = target: T1, human TRβ ligand-binding domain; assay: TRb-coa LanthaScreen TR-FRET coactivator (SRC-2 peptide) recruitment, agonist (TOX21_TRB_COA_Agonist_Followup_ratio, aeid 2244); assay type: biochemical; design: host or cells: GeneBLAzer UAS-bla HEK 293T; conditions: for AC50: cell-free coactivator recruitment, read-out: TRb-coa-Ag AC50; for TRb-coa hitc: hit call from tcpl, agonist; for Emax: read-out: EMax (% of Control) trb-coa-agonist-followup-1
GH3-TRE-Luc cell line [14] = assay: GH3-TRE-Via cell viability, CellTiter-Fluor (TOX21_TR_LUC_GH3_Antagonist_viability, aeid 805)
human RXRα = target: T3, human RXRα (Homo sapiens, UniProt P19793); assay: RXRa-bla-Ag mammalian one-hybrid beta-lactamase assay (TOX21_TR_RXR_BLA_Agonist_Followup_ratio, aeid 2253); assay type: cell-based; conditions: for AC50: HEK 293T one-hybrid, agonist mode, inactive set to 1,000, read-out: RXRa-bla-Ag AC50; for tr-followup-rxr-bla-agonist-1 hitc: hit call from tcpl; for Emax: read-out: EMax (% of Control) tr-followup-rxr-bla-agonist-1
T3 construct: host or cells: GeneBLAzer UAS-bla HEK 293T
T3 sequence (P19793 227-458 limits assumed): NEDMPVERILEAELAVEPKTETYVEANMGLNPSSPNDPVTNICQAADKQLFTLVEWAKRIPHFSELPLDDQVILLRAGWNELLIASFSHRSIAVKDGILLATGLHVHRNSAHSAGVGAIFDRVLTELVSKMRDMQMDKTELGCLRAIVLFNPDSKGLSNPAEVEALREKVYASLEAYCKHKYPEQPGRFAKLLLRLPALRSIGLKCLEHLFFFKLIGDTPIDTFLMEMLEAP

[15] = antagonist mode, 1 nM T3; read-out: GH3-TRE-Antag AC50
[16] = antagonist candidates, inactive samples arbitrarily set to AC50=1,000 μM, read-out: GH3-TRE-Ag AC50
[17] = percentage of 18 Tox21 viability assays with hitc=1
[18] = median over 18 Tox21 cell viability assays, inactive set to 1,000, read-out: Global cytotoxicity AC50 median
[19] = primary qHTS, agonist mode, 24 h, top concentration 92 μM, read-out: GH3-TRE-Ag AC50

T2 sequence (P10827 163-410 isoform P10827-2 limits assumed, other chains not shown): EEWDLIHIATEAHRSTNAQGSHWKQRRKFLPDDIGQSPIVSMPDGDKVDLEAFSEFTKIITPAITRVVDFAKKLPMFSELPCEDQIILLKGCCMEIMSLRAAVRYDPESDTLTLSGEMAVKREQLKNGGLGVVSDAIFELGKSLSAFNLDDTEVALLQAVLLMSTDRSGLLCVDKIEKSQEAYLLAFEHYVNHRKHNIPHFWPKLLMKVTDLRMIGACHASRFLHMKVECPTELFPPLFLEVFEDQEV

SMILES	AC50 [1, 15] [µM]	Active in global cytotoxicity assays (%) [2] [%]	AC50 [3] [µM]	AC50 at 24 h (in vitro [5]) [µM]	AC50 [6, 16] [µM]	GLOBAL CYTOTOXICITY cytotox.number_Active [2]	Categorization Code [9]	Classification [9]	EMax (% of Control) gh3-tre-agonist-followup-1_agonist [10]	AC50 [10] [µM]	GH3-TRE-Ag-Followup hitc [10]	GH3-TRE-Ag AC50 hitc [6]	other results
Cc1cccc(Nc2ccccc2C(=O)O)c1C [Mefenamic acid]	19.5	4.5	50.8	> 92	> 92	–	–	–	–	–	–	–	active rate in Tox21 viability/cytotoxicity assays [2]: 4.5%; CC50 at 24 h (in vitro [4]): > 50 µM
CN(C)c1ccc(/N=N/c2ccccc2C(=O)O)cc1 [Methyl red]	8.79	48.5	48.5	14.6	> 92	–	–	–	–	–	–	–	–
C=C1CC[C@@H]2[C@](C)(CO)[C@H](O)CC[C@@]2(C)[C@@H]1C/C=C1/C(=O)OC[C@H]1O [Andrographolide]	24.6	–	–	–	> 92	–	–	–	–	–	–	–	AC50 at 24 h [7]: 19.4 µM
CC(C)C[C@H](NC(=O)[C@H](CCc1ccccc1)NC(=O)CN1CCOCC1)C(=O)N[C@@H](Cc1ccccc1)C(=O)N[C@@H](CC(C)C)C(=O)[C@@]1(C)CO1 [Carfilzomib]	0.025	64.4	0.46	0.037	> 92	–	–	–	–	–	–	–	active rate in Tox21 viability/cytotoxicity assays [2]: 64%
O=C(O)Cc1cc(I)c(Oc2ccc(O)c(I)c2)c(I)c1 [Tiratricol, reference compound]	–	–	27	> 92	–	4	TR-Ag	TR-Ag	105.1 % of Control	0.0002	1	1	TR_LUC_GH3_Antagonist_viability hitc (GH3-TRE-Luc cell line [8]): 0; GLOBAL CYTOTOXICITY cytotox.median ([2]; median over Tox21 viability assays): 27.0; TR_LUC_GH3_Agonist_EMAX (% Control) [6]: 104.7 % Control
COC(=O)C[C@](O)(CCCC(C)(C)O)C(=O)O[C@@H]1C(OC)=C[C@]23CCCN2CCc2cc4c(cc2[C@H]13)OCO4 [Omacetaxine mepesuccinate]	0.029	60.0	0.06	0.057	> 92	–	–	–	–	–	–	–	CC50 at 24 h (in vitro [4]): 0.0816 µM
COc1cccc2c1C(=O)c1c(O)c3c(c(O)c1C2=O)C[C@@](O)(C(C)=O)C[C@@H]3O[C@H]1C[C@H](N)[C@H](O)[C@H](C)O1 [Daunorubicin]	–	66.1	10.5	1.01	–	–	–	–	–	–	–	–	AC50 ([1]; read-out: GH3-TRE-Antag AC50; antagonist mode, 1 nM T3): 0.7 µM; active rate in Tox21 viability/cytotoxicity assays [2]: two-thirds; AC50 ([6]; read-out: GH3-TRE-Ag AC50): > 92 µM
CCCCCCCCCCCCn1cc[n+](C)c1.[I-] [1-Dodecyl-3-methylimidazolium iodide]	1.33	–	–	–	> 92	–	–	–	–	–	–	–	Active in global cytotoxicity assays (%) [2, 17]: 74.2%; AC50 [3, 18]: 41.1 µM; AC50 (in vitro [5]): 5.1 µM
N[C@@H](Cc1cc(I)c(Oc2ccc(O)c(I)c2)c(I)c1)C(=O)O [3,5,3ʹ-Triiodothyronine, reference compound]	–	–	> 92	41.7	–	0	TR-Ag	TR-Ag	[…]	[…]	[…]	[…]	TR_LUC_GH3_Antagonist_viability hitc (GH3-TRE-Luc cell line [8]): […]; GLOBAL CYTOTOXICITY cytotox.median [2]: >92; EMax (% of Control) gh3-tre-agonist [6]: […]; TR_LUC_GH3_Agonist_EMAX (% Control) [6]: […]; AC50 ([6]; Table S5, chemical level, listed as 3,5,3'-Triiodothyronine, read-out: TR_LUC_GH3_Agonist_AC50): […]
C=C(c1ccc(C(=O)O)cc1)c1cc2c(cc1C)C(C)(C)CCC2(C)C [Bexarotene, reference compound]	–	–	23.9	10.4	–	15	RXR-Ag	RXR-Ag	37.1 % of Control	0.017	1	0	TR_LUC_GH3_Antagonist_viability hitc (GH3-TRE-Luc cell line [8]): 1; AC50 [11]: > 92 µM; TRb-bla hitc [11]: 0; Emax [11]: 11.8%; AC50 [12]: > 92 µM; TRa-coa hitc [12]: 0; Emax [12]: -0.4%; GLOBAL CYTOTOXICITY cytotox.median [2]: 23.9; EMax (% of Control) gh3-tre-agonist [6]: 26.0 % of Control; AC50 [6, 19]: 0.0077 µM; AC50 [13]: > 92 µM; TRb-coa hitc [13]: 0; Emax [13]: -0.427%
CCCCCOc1ccc(C2SC(=O)NC2=O)cc1OCC (stereo not drawn) [Risarestat, reference compound]	–	–	–	–	> 92	–	–	–	–	–	–	–	Active in global cytotoxicity assays (%) [2, 17]: 11.9%; AC50 [3, 18]: 16.4 µM; cytotoxicity in GH3 viability assay (GH3-TRE-Luc cell line [14]): lacked cytotoxicity; AC50 at 24 h [7]: > 92 µM
COc1cc(C)c(/C=C/C(C)=C/C=C/C(C)=C/C(=O)O)c(C)c1C [Acitretin, reference compound]	–	–	–	> 92	–	0	RXR-Ag	RXR-Ag	79.4 % of Control	0.94	1	1	Emax [11]: 4.1%; AC50 [12]: > 92 µM; TRa-coa hitc [12]: 0; Emax [12]: 3.4%; GLOBAL CYTOTOXICITY cytotox.median [2]: >92; AC50 ([3]; median over 18 Tox21 cell viability assays (Judson et al. 2016, invitrodb_v2), read-out: Global cytotoxicity AC50 median): > 92 µM; AC50 (human RXRα): 0.564 µM; tr-followup-rxr-bla-agonist-1 hitc (human RXRα): 1; Emax (human RXRα): 105%; EMax (% of Control) gh3-tre-agonist [6]: 24.4 % of Control; Emax [13]: 4.8%; TR_LUC_GH3_Antagonist_viability hitc (GH3-TRE-Luc cell line [14]; hit call from tcpl): 0
c1cc(N(CC2CO2)CC2CO2)ccc1Cc1ccc(N(CC2CO2)CC2CO2)cc1 (stereo not drawn) [4,4ʹ-Methylenebis(N,N-diglycidylaniline)]	8.03	–	–	–	> 92	–	–	–	–	–	–	–	Active in global cytotoxicity assays (%) [2, 17]: 59.1%; AC50 [3, 18]: 45.3 µM; AC50 (in vitro [5]): 11.1 µM
CCCc1c(OCCCCc2nnn[nH]2)ccc(C(C)=O)c1O [Tomelukast, reference compound]	–	–	–	–	> 92	–	–	–	–	–	–	–	Active in global cytotoxicity assays (%) [2, 17]: 9.1%; AC50 [3, 18]: 14.4 µM; AC50 at 24 h [7]: > 92 µM
O=C(O)CCNC(=O)c1ccccc1 [Betamipron, reference compound]	–	–	> 92	> 92	–	0	TR-Ag	TR-Ag	90.7 % of Control	1.68	1	1	TR_LUC_GH3_Antagonist_viability hitc (GH3-TRE-Luc cell line [8]): 0; AC50 [11]: 14 µM; TRb-bla hitc [11]: 1; Emax [11]: 85.5%; AC50 [12]: 10.4 µM; TRa-coa hitc [12]: 1; Emax [12]: 120%; GLOBAL CYTOTOXICITY cytotox.median [2]: >92; activity in RXRα-bla-Ag assay (human RXRα): lack of activity; AC50 (human RXRα): > 92 µM; tr-followup-rxr-bla-agonist-1 hitc (human RXRα): 0; Emax (human RXRα): 2.9%; EMax (% of Control) gh3-tre-agonist [6]: 72.8 % of Control; activity in GH3-TRE agonist assay [6]: concentration-dependent activity; AC50 [6, 19]: 11.8 µM; AC50 [13]: 11.8 µM; TRb-coa hitc [13]: 1; Emax [13]: 30.8%
